# Measured values: PMC3243762 (Clinical cancer research : an official journal of the …, 2011)
# Several values for one entry are separate records, joined by “and”; a condition that tells them apart may be missing. Identical values can stand only once. Like-named read-outs stand apart in the source and are kept apart here.
# Tests used:
# [1] = Human radiation dosimetry estimates
# [2] = test system: PSMA+ PC3 PIP and PSMA− PC3 flu xenografts; conditions: for Biodistribution, Bladder (empty) / Biodistribution, Blood / Biodistribution, Bone / Biodistribution, Heart / Biodistribution, Kidney / Biodistribution, Liver / Biodistribution, Lung / Biodistribution, Muscle / Biodistribution, PSMA+ PIP tumor / Biodistribution, PSMA− flu tumor / Biodistribution, Pancreas / Biodistribution, Spleen / Biodistribution, Stomach / Biodistribution, lrg. Intest / Biodistribution, sm. Intest: iv, n = 4
# [3] = human source organ, from mouse data
structure (smiles),measurement,setting,value
"O=C(O)CCC(NC(=O)NC(CCCCNC(=O)c1ccc([18F])nc1)C(=O)O)C(=O)O (centres unmarked) [[^18F]DCFPyL, 2-(3-{1-Carboxy-5-[(6-[^18F]fluoro-pyridine-3-carbonyl)-amino]-pentyl}-ureido)-pentanedioic acid]","Absorbed dose, Total body",[1]; estimated human,5.71E-03 mGy/MBq
same,Effective dose,[1]; estimated human,1.36E-02 mSv/MBq
same,Effective dose equivalent,[1]; estimated human,1.80E-02 mSv/MBq
same,"Absorbed dose, Adrenals",[1]; estimated human target organ,6.46E-03 mGy/MBq
same,"Absorbed dose, Brain",[1]; estimated human target organ,4.84E-03 mGy/MBq
same,"Absorbed dose, Breasts",[1]; estimated human target organ,3.97E-03 mGy/MBq
same,"Absorbed dose, Gallbladder wall",[1]; estimated human target organ,6.48E-03 mGy/MBq
same,"Absorbed dose, Heart wall",[1]; estimated human target organ,3.26E-03 mGy/MBq
same,"Absorbed dose, Kidneys",[1]; estimated human target organ,0.05 mGy/MBq and 4.81E-02 mGy/MBq
same,"Absorbed dose, Liver",[1]; estimated human target organ,7.38E-03 mGy/MBq
same,"Absorbed dose, Lower large intestine wall",[1]; estimated human target organ,9.40E-03 mGy/MBq
same,"Absorbed dose, Lungs",[1]; estimated human target organ,3.01E-03 mGy/MBq
same,"Absorbed dose, Muscle",[1]; estimated human target organ,3.95E-03 mGy/MBq
same,"Absorbed dose, Osteogenic cells",[1]; estimated human target organ,7.59E-03 mGy/MBq
same,"Absorbed dose, Ovaries",[1]; estimated human target organ,9.06E-03 mGy/MBq
same,"Absorbed dose, Pancreas",[1]; estimated human target organ,4.38E-03 mGy/MBq
same,"Absorbed dose, Red marrow",[1]; estimated human target organ,5.35E-03 mGy/MBq
same,"Absorbed dose, Skin",[1]; estimated human target organ,3.84E-03 mGy/MBq
same,"Absorbed dose, Small intestine",[1]; estimated human target organ,7.53E-03 mGy/MBq
same,"Absorbed dose, Spleen",[1]; estimated human target organ,6.57E-03 mGy/MBq
same,"Absorbed dose, Stomach wall",[1]; estimated human target organ,5.27E-03 mGy/MBq
same,"Absorbed dose, Testes",[1]; estimated human target organ,7.06E-03 mGy/MBq
same,"Absorbed dose, Thymus",[1]; estimated human target organ,4.43E-03 mGy/MBq
same,"Absorbed dose, Thyroid",[1]; estimated human target organ,4.45E-03 mGy/MBq
same,"Absorbed dose, Upper large intestine wall",[1]; estimated human target organ,6.67E-03 mGy/MBq
same,"Absorbed dose, Urinary bladder wall",[1]; estimated human target organ,0.15 mGy/MBq and 1.51E-01 mGy/MBq
same,"Absorbed dose, Uterus",[1]; estimated human target organ,1.45E-02 mGy/MBq
same,"Time-integrated activity coefficient, Urinary bladder contents","[1]; human source organ, dynamic voiding bladder model, one hour voiding interval",3.09E-01 MBq-h/MBq
same,"Time-integrated activity coefficient, Heart wall",[1]; [3],3.97E-04 MBq-h/MBq
same,"Time-integrated activity coefficient, Kidneys",[1]; [3],7.47E-02 MBq-h/MBq
same,"Time-integrated activity coefficient, Liver",[1]; [3],4.09E-02 MBq-h/MBq
same,"Time-integrated activity coefficient, Lower large intestine",[1]; [3],4.23E-04 MBq-h/MBq
same,"Time-integrated activity coefficient, Lungs",[1]; [3],3.52E-03 MBq-h/MBq
same,"Time-integrated activity coefficient, Muscle",[1]; [3],4.50E-02 MBq-h/MBq
same,"Time-integrated activity coefficient, Pancreas",[1]; [3],1.48E-04 MBq-h/MBq
same,"Time-integrated activity coefficient, Small intestine",[1]; [3],1.30E-03 MBq-h/MBq
same,"Time-integrated activity coefficient, Spleen",[1]; [3],2.98E-03 MBq-h/MBq
same,"Time-integrated activity coefficient, Stomach",[1]; [3],3.36E-04 MBq-h/MBq
same,"Time-integrated activity coefficient, Upper large intestine",[1]; [3],4.23E-04 MBq-h/MBq
same,"Time-integrated activity coefficient, Remainder","[1]; human, remainder of body, from mouse data",8.51E-01 MBq-h/MBq
same,"Biodistribution, Bladder (empty)",[2]; 30 min pi,18.6± 18.1 % ID/g
same,"Biodistribution, Blood",[2]; 30 min pi,1.53±0.19 % ID/g
same,"Biodistribution, Bone",[2]; 30 min pi,0.82 ±0.16 % ID/g
same,"Biodistribution, Heart",[2]; 30 min pi,0.68 ±0.07 % ID/g
same,"Biodistribution, Kidney",[2]; 30 min pi,74.1 ±6.6 % ID/g
same,"Biodistribution, Liver",[2]; 30 min pi,3.88 ±0.74 % ID/g
same,"Biodistribution, Lung",[2]; 30 min pi,1.91 ±0.47 % ID/g
same,"Biodistribution, Muscle",[2]; 30 min pi,0.39 ±0.05 % ID/g
same,"Biodistribution, PSMA+ PIP tumor",[2]; 30 min pi,46.7 ±5.8 % ID/g
same,"Biodistribution, PSMA− flu tumor",[2]; 30 min pi,1.17 ±0.41 % ID/g
same,"Biodistribution, Pancreas",[2]; 30 min pi,1.02 ±0.53 % ID/g
same,"Biodistribution, Spleen",[2]; 30 min pi,7.59 ±3.56 % ID/g
same,"Biodistribution, Stomach",[2]; 30 min pi,1.50±1.12 % ID/g
same,"Biodistribution, lrg. Intest",[2]; 30 min pi,0.73 ±0.04 % ID/g
same,"Biodistribution, sm. Intest",[2]; 30 min pi,0.79 ±0.11 % ID/g
same,"Biodistribution, Bladder (empty)",[2]; 60 min pi,9.88 ±4.92 % ID/g
same,"Biodistribution, Blood",[2]; 60 min pi,0.24 ±0.05 % ID/g
same,"Biodistribution, Bone",[2]; 60 min pi,0.42 ±0.15 % ID/g
same,"Biodistribution, Heart",[2]; 60 min pi,0.20 ±0.11 % ID/g
same,"Biodistribution, Kidney",[2]; 60 min pi,42.3 ±19.0 % ID/g
same,"Biodistribution, Liver",[2]; 60 min pi,2.87 ±0.92 % ID/g
same,"Biodistribution, Lung",[2]; 60 min pi,0.55 ±0.17 % ID/g
same,"Biodistribution, Muscle",[2]; 60 min pi,0.61 ±0.92 % ID/g
same,"Biodistribution, PSMA+ PIP tumor",[2]; 60 min pi,44.2 ±9.7 % ID/g
same,"Biodistribution, PSMA− flu tumor",[2]; 60 min pi,0.36 ±0.14 % ID/g
same,"Biodistribution, Pancreas",[2]; 60 min pi,0.26 ±0.13 % ID/g
same,"Biodistribution, Spleen",[2]; 60 min pi,2.70 ±1.28 % ID/g
same,"Biodistribution, Stomach",[2]; 60 min pi,0.35 ±0.34 % ID/g
same,"Biodistribution, lrg. Intest",[2]; 60 min pi,0.40 ±0.17 % ID/g
same,"Biodistribution, sm. Intest",[2]; 60 min pi,0.31 ±0.12 % ID/g
same,"Biodistribution, Bladder (empty)",[2]; 120 min pi,6.44 ±4.42 % ID/g
same,"Biodistribution, Blood",[2]; 120 min pi,0.43 ±0.37 % ID/g
same,"Biodistribution, Bone",[2]; 120 min pi,0.33 ±0.08 % ID/g
same,"Biodistribution, Heart",[2]; 120 min pi,0.06 ±0.01 % ID/g
same,"Biodistribution, Kidney",[2]; 120 min pi,15.7 ±3.3 % ID/g
same,"Biodistribution, Liver",[2]; 120 min pi,2.1 % ID/g
same,"Biodistribution, Lung",[2]; 120 min pi,0.18 ±0.02 % ID/g
same,"Biodistribution, Muscle",[2]; 120 min pi,0.04 ±0.00 % ID/g
same,"Biodistribution, PSMA+ PIP tumor",[2]; 120 min pi,39.4 ±5.4 % ID/g
same,"Biodistribution, PSMA− flu tumor",[2]; 120 min pi,0.11 ±0.02 % ID/g
same,"Biodistribution, Pancreas",[2]; 120 min pi,0.08 ±0.00 % ID/g
same,"Biodistribution, Spleen",[2]; 120 min pi,0.69 ±0.11 % ID/g
same,"Biodistribution, Stomach",[2]; 120 min pi,0.08 ±0.03 % ID/g
same,"Biodistribution, lrg. Intest",[2]; 120 min pi,0.12 ±0.05 % ID/g
same,"Biodistribution, sm. Intest",[2]; 120 min pi,0.11 ±0.07 % ID/g
same,"Biodistribution, Liver","[2]; 120 min pi, listed as [^18F]3",2.14±0.11 % ID/g
same,"Biodistribution, Bladder (empty)",[2]; 240 min pi,1.54 ±1.79 % ID/g
same,"Biodistribution, Blood",[2]; 240 min pi,0.03 ±0.01 % ID/g
same,"Biodistribution, Bone",[2]; 240 min pi,0.43 ±0.06 % ID/g
same,"Biodistribution, Heart",[2]; 240 min pi,0.02 ±0.00 % ID/g
same,"Biodistribution, Liver",[2]; 240 min pi,1.80 ±0.39 % ID/g
same,"Biodistribution, Lung",[2]; 240 min pi,0.06 ±0.00 % ID/g
same,"Biodistribution, Muscle",[2]; 240 min pi,0.05 ±0.05 % ID/g
same,"Biodistribution, PSMA+ PIP tumor",[2]; 240 min pi,36.6 ±4.3 % ID/g
same,"Biodistribution, PSMA− flu tumor",[2]; 240 min pi,0.03 ±0.01 % ID/g
same,"Biodistribution, Pancreas",[2]; 240 min pi,0.03 ±0.01 % ID/g
same,"Biodistribution, Spleen",[2]; 240 min pi,0.23 ±0.09 % ID/g
same,"Biodistribution, Stomach",[2]; 240 min pi,0.02 ±0.00 % ID/g
same,"Biodistribution, lrg. Intest",[2]; 240 min pi,0.06 ±0.01 % ID/g
same,"Biodistribution, sm. Intest",[2]; 240 min pi,0.05 ±0.01 % ID/g
same,"Biodistribution, Kidney","[2]; 240 min pi, listed as [^18F]3",7.42 ±0.89 % ID/g
same,Bone uptake,[2]; at all time points,< 1 % ID/g
same,Non-target tissue uptake,[2]; at or after 1 h post-injection,minimal non-target tissue uptake
same,Decrease of PSMA+ PC3 PIP xenograft uptake,[2]; from 30 min pi over the ensuing 4 h,about 10%
